Assay results reported in patent publication US12458605B2, “Lipid nanoparticle” (National University Corporation Hokkaido University, priority 2020, dated 2025).

How the values were obtained:
[1] = Storage stability of FlucmRNA-loaded LNP at −80, 5, 25 and 40° C.; assay type: physicochemical; conditions: for period for which quality remained good, −80° C.: maximum storage period 1 week; for period for which quality remained good, 5° C. / period for which quality remained good, 25° C. / period for which quality remained good, 40° C. (weeks): maximum storage period 5 weeks
Procedure, shortened: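 FlucmRNA-loaded LNPs held at −80, 5, 25 or 40° C; at each time point size, PDI and encapsulation measured. Quality deemed maintained while size stays within ±20 nm of preparation day, PDI ≤0.2 and encapsulation ≥80%; value is the period meeting all three.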

[2] = system: F7; experiment: In vivo F7 knockdown, plasma F7 enzyme activity (BIOPHEN FVII), Balb/c mice; conditions: i.v. 0.025 mg siRNA/kg, plasma at 24 hours, untreated mice as 100%
Procedure, shortened: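 Female Balb/c mice, 5 weeks old, received F7 siRNA lipid nanoparticles i.v. at 0.025 mg siRNA/kg; plasma F7 activity measured chromogenically (BIOPHEN FVII) 24 h later. Values are % of untreated mice, also expressed as a ratio to MC3-containing nanoparticles set at 1.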

[3] = Average particle size (ζ-Average) and PDI by dynamic light scattering (Zetasizer Nano ZSP); assay type: physicochemical; conditions: for Particle size (nm), immediately after the preparation: pDNA (eGFP)-loaded LNP
Procedure, shortened: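 Lipid nanoparticles dispersed in PBS(−) were sized by dynamic light scattering, giving the ζ-Average diameter and polydispersity index (PDI).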

[4] = system: spleen; experiment: In vivo Fluc activity of FlucmRNA-loaded LNP by in vivo imaging, spleen; conditions: Balb/c mice, 6 hours; for Fluc Activity in spleen: FlucmRNA-loaded LNP i.v. 0.1 mg mRNA/kg; for Fluc activity in the spleen, compared with CL4F6: 0.1 mg mRNA/kg, versus LNP comprising CL4F6 (Tables 5 and 6)
Procedure, shortened: (§1)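 Female Balb/c mice, 7 weeks old, received LNP i.v. at 0.1 mg mRNA/kg. At 6 h, luciferin was given via tail vein at 1.5 mg per mouse, and liver and spleen luminescence was imaged as Avg Radiance [p/s/cm2/sr] near 560 nm.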

[5] = siRNA/mRNA encapsulation rate by Ribogreen reagent (section IV); assay type: physicochemical; conditions: for % siRNA encapsulation: F7siRNA-loaded LNP, 50:10:38.5:1.5, N/P ratio 6; for % mRNA encapsulation: FlucmRNA-loaded LNP, 50:10:38.5:1.5
Procedure, shortened: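 LNPs diluted in TE buffer to 8 μg/mL nucleic acid for surface RNA, or to 1.2 μg/mL with 1% Triton X-100 for total RNA. RiboGreen fluorescence (ex 485/em 528 nm) quantified against a Triton-containing standard curve (0-2.5 μg/mL). Encapsulation % = (total − surface)/total × 100.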

[6] = pDNA encapsulation rate by Picogreen reagent; assay type: physicochemical; conditions: pDNA (eGFP)-loaded LNP
Procedure: The encapsulation rate of pDNA of the lipid nanoparticles was measured using Picogreen (registered trademark) reagent (Quant-iT™ dsDNA Assay Kit, broad range, manufactured by Thermofisher Scientific). In encapsulation rate measurement of pDNA, the nucleic acid concentration in solution for measuring nanoparticle surface nucleic acid concentration was set at 1.6 μg/mL, the nucleic acid concentration in solution for measuring total nucleic acid concentration […], and the nucleic acid concentration used for calibration curve 0-0.5 μg/mL, and the same method as the method for measuring encapsulation rate of siRNA and mRNA was carried out except that Picogreen (registered trademark) reagent (Quant-iT™ dsDNA Assay Kit, broad range, manufactured by Thermofisher Scientific) was used as measurement reagent. Encapsulation rate %=(nucleic acid concentration in solution for measuring total nucleic acid concentration (μg/mL)−nucleic acid concentration in solution for measuring nanoparticle surface nucleic acid concentration (μg/mL))/(nucleic acid concentration in solution for measuring total nucleic acid concentration (μg/mL))×100. <Results>

[7] = system: liver; experiment: In vivo Fluc activity of FlucmRNA-loaded LNP by in vivo imaging, liver; conditions: Balb/c mice, 6 hours; for Fluc Activity in liver: FlucmRNA-loaded LNP i.v. 0.1 mg mRNA/kg
Procedure, shortened: as §1

[8] = Stability of pDNA-loaded LNP standing at 40° C.; assay type: physicochemical; conditions: for Quality 40° C. 1 M / Quality 40° C. 1 W: pDNA-loaded LNP; for Particle size (nm), 40° C. 1 M / encapsulation rate (%), 40° C. 1 M: pDNA-loaded LNP after standing at 40° C. 1 M; for Particle size (nm), 40° C. 1 W / encapsulation rate (%), 40° C. 1 W: pDNA-loaded LNP after standing at 40° C. 1 W
Procedure: Prepared lipid nanoparticles were allowed to stand at 40° C., and after keeping for each period, they were evaluated whether quality was well remained according to the following criteria: • Good (O): particle size is within +/−20 nm of the particle size immediately after preparation, and PDI is 0.2 or less, and encapsulation rate is 80% or more; • No good (X): particle size is greater than +/−20 nm of the particle size immediately after preparation, or encapsulation rate is less than 80%.
The lipid nanoparticles which remain in good quality with standing at 40° C. for one week or more can be evaluated as having excellent stability.

[9] = F7siRNA-loaded LNP, 50:10:38.5:1.5, N/P ratio 6
[10] = FlucmRNA-loaded LNP, 50:10:38.5:1.5
[11] = FlucmRNA-loaded LNP, lipid:DSPC:cholesterol:DMG-PEG2K 50:10:38.5:1.5

| SMILES | period for which quality remained good, −80° C. [1] [week] | period for which quality remained good, 5° C. [1] [weeks] | period for which quality remained good, 25° C. [1] [weeks] | period for which quality remained good, 40° C. (weeks) [1] | F7 enzyme activity (%) [2] [%] | PDI [3, 9] | ζ-Average (nm) [3, 9] [nm] | PDI [3, 10] | ζ-Average (nm) [3, 11] [nm] | Particle size (nm), immediately after the preparation ([3]; 50:10:38.5:1.5) [nm] | Fluc Activity in spleen [4] | % siRNA encapsulation [5] [%] | % mRNA encapsulation [5] [%] | encapsulation rate (%), immediately after the preparation [6] [%] | Fluc Activity in liver [7] | Quality 40° C. 1 M [8] | Quality 40° C. 1 W [8] | Particle size (nm), 40° C. 1 M [8] [nm] | encapsulation rate (%), 40° C. 1 M [8] [%] | Particle size (nm), 40° C. 1 W [8] [nm] | also measured |
| --- | --- | --- | --- | --- | --- | --- | --- | --- | --- | --- | --- | --- | --- | --- | --- | --- | --- | --- | --- | --- | --- |
| CCCCCCCC(CCCCCCC)C(=O)OCCCCCCC(O)(CCCCCCOC(=O)C(CCCCCCC)CCCCCCC)CCCCN(CCC)CCC [CL4F 9-7] | 1 | 5 | 5 | 5 weeks | 4.3 | 0.020 | 97.03 | 0.004 | 81.30 | 98.2 | 2.43E+06 Avg Radiance [p/s/cm2/sr] | 99.9 | 99.2 | 98.1 | 1.55E+08 Avg Radiance [p/s/cm2/sr] | ∘ | ∘ | 101.4 | 98.1 | 97.1 | Fluc activity in the liver, compared with CL4F6 ([7]; 0.1 mg mRNA/kg, versus LNP comprising CL4F6 (Tables 5 and 6)): higher Fluc activity; encapsulation rate (%), 40° C. 1 W [8]: 98.0% |
| CCCCCCCCC(CCCCC)C(=O)OCCCCCCC(O)(CCCCCCOC(=O)C(CCCCC)CCCCCCCC)CCCCN(CCC)CCC (stereo not drawn) [CL4F 10-5] | 1 | 5 | 5 | 5 weeks | 3 | 0.006 | 98.70 | 0.021 | 84.62 | 101.6 | 4.64E+06 Avg Radiance [p/s/cm2/sr] | 100.1 | 99.7 | 98.2 | 1.06E+08 Avg Radiance [p/s/cm2/sr] | ∘ | ∘ | 104.2 | 98.5 | 101.0 | Fluc activity in the spleen, compared with CL4F6 [4]: higher Fluc activity; encapsulation rate (%), 40° C. 1 W [8]: 98.3% |
| CCCCCCC(CCCC)C(=O)OCCCCCCC(O)(CCCCCCOC(=O)C(CCCC)CCCCCC)CCCCN(CCC)CCC (stereo not drawn) [CL4F 8-4] | 1 | 5 | 5 | 1 week weeks | 5.6 | 0.006 | 110.00 | 0.020 | 101.60 | 104.7 | 1.41E+07 Avg Radiance [p/s/cm2/sr] | 100.0 | 99.7 | 98.0 | 6.09E+07 Avg Radiance [p/s/cm2/sr] | ∘ | ∘ | 116.4 | 98.1 | 109.1 | Fluc activity in the spleen, compared with CL4F6 [4]: higher Fluc activity; encapsulation rate (%), 40° C. 1 W [8]: 97.8% |
